Tested on: bphA gene promoter
Assay: bphA promoter-GFP fusions, benzoic acid-dependent GFP expression
Type: cell-based, Aspergillus nidulans strain GR5
Conditions: 8 mM benzoic acid, 5 hours; full promoter (1.8 kbp) and FR6 (0.4 kbp)
Description: In order to determine the minimal promoter length capable of retaining benzoic acid inducibility, promoter fusions to the Green Fluorescent Protein (GFP) gene were prepared. The full bphA promoter and shorter versions of it were PCR amplified using primers BPHPFwd (5′-[…]-3′, SEQ ID NO:19), BPHFR6 (5′-[…]-3′, SEQ ID NO:20), BPH331 (5′-[…]-3′, SEQ ID NO:21), and BPHPRev (5′-[…]-3′, SEQ ID NO:22). These primers introduced HindIII restriction sites (underlined) at both ends, which allowed cloning of the fragments upstream of the GFP gene contained within the pEBFP vector (Clontech, Palo Alto, Calif.).
The promoter-GFP fusions were called pBPH-1847-GFP, pBPH-531-GFP, and pBPH331-GFP, respectively. The selectable marker Pyr4 gene from Neurospora crassa, driven by its own promoter, was used to select putative A. nidulans transformed clones. The selectable marker was PCR-amplified from the pBS-Pyr4 vector using primers PyrEcoF (5′-[…]-3′, SEQ ID NO:23), and PyrEcoR (5′-[…]-3′, SEQ ID NO:24), which introduced EcoRI restriction sites (underlined) on both ends of the product. […]
Aspergillus nidulans GR5 protoplasts were prepared according to Aramayo and Timberlake ((1993) EMBO J. 12: 2039-2048), with some modifications. […] Concentration of protoplasts was determined using a hemacytometer, and adjusted to 10^8 protoplasts per mL. […]

## O=C(O)c1ccccc1 [benzoic acid]
  GFP expression from bphA promoter-GFP fusions: able to induce GFP expression only in the presence of the inducer

Reference: patent US7705203B2, “Benzoate inductible promoters” (Purdue Research Foundation, priority 2002, dated 2010)
